Values joined by “and” are separate entries in the source; they are usually repeats but may differ in a detail not shown here. Equal entries are not always repeated. Where two headings read alike, the source gives them in different places.
Assay: Plasma pharmacokinetics of SU5416 and metabolites in Phase I patients (HPLC UV)
Type: in vivo, human
Settings: twice weekly i.v. infusion; for clearance: read-out: CL (observed) (converted); for half-life: read-out: T1/2λz (converted); for Vd: read-out: Vz (observed)
Procedure: Samples were taken prior to treatment infusion, 15 min into the infusion, at completion of the infusion and then at 5, 10, 20, 30, 45, 60, 120 and 240 min following the infusion. […] At the designated times, 4.0 ml of blood were collected into a lithium heparin tube, gently inverted and placed on ice to maintain the sample at 2–8°C. All samples were immediately centrifuged at 6000 r.p.m. at 4°C for 10 min, the supernatant divided between two 1.5 ml Nalgene cryovials and snap frozen in liquid nitrogen. Separated plasma samples were subsequently stored at −70°C until analysis.
Pharmacokinetic analysis was performed using a fully validated HPLC UV method ([Stopeck et al, 2002]). Plasma samples, standards (25–2000 ng ml^−1) and quality controls spiked with internal standards were extracted with acetonitrile. Following centrifugation, drying and reconstitution in 200 μl mobile phase, 20 μl were analysed by HPLC UV. Chromatography was carried out using a C18 analytical column, with a gradient mobile phase containing acetonitrile and 10 mM ammonium formate at pH 2.6. The flow rate was 0.8 ml min^−1 and the run-time 21 min. Detection was via UV absorption at a wavelength of 440 nm. The accuracy of the assay, reflected in relative error of measured concentration to theoretical (prepared) concentrations, was between 0.9 and 5.6% for all quality control samples.
Pharmacokinetic parameters were evaluated using WinNonLin Software®.

[1] = human, plasma, iv, 85 mg m^−2, individual patients, dose 85 mg m^−2, cycle 1inj8
[2] = human, plasma, iv, 85 mg m^−2, individual patients, dose 85 mg m^−2, cycle 2inj8
[3] = human, plasma, iv, 110 mg m^−2, individual patients, dose 110 mg m^−2, cycle 1inj2
[4] = human, plasma, iv, 110 mg m^−2, individual patients, dose 110 mg m^−2, cycle 1inj8
[5] = individual patients, dose 48 mg m^−2, cycle 1inj2
[6] = individual patients, dose 48 mg m^−2, cycle 1inj8
[7] = individual patients, dose 65 mg m^−2, cycle 1inj2
[8] = individual patients, dose 65 mg m^−2, cycle 1inj8
[9] = individual patients, dose 85 mg m^−2, cycle 1inj2
[10] = individual patients, dose 85 mg m^−2, cycle 1inj8
[11] = individual patients, dose 110 mg m^−2, cycle 1inj2
[12] = individual patients, dose 145 mg m^−2, cycle 1inj2
[13] = individual patients, dose 145 mg m^−2, cycle 1inj8
[14] = individual patients, dose 145 → 190 mg m^−2, cycle 1inj2
[15] = individual patients, dose 145 → 190 mg m^−2, cycle 1inj8

Q: For `Cc1cc(C)c(/C=C2\C(=O)Nc3ccccc32)[nH]1` [SU5416, Z-3-[(2,4-dimethylpyrrol-5-yl)methylidenyl]-2-indolinone], which AUC(0-t) [1] is on record?
A: The AUC(0-t) was 2380 ng·h/mL.

Q: What about the clearance [1] of the same molecule?
A: The clearance was 1000 mL/min.

Q: What about the AUC(0-t) [2] of the same molecule?
A: Its AUC(0-t) is 1620 ng·h/mL.

Q: What about the clearance [2] of the same molecule?
A: Its clearance is 1470 mL/min.

Q: And the Cmax (human, plasma, iv, 85 mg m^−2, individual patients, dose 85 mg m^−2, cycle 2inj8, read-out: Cmax)?
A: Its Cmax is 2800 ng/mL.

Q: And the half-life [2]?
A: The half-life was 44.4 min.

Q: What about the Vd [2] of the same molecule?
A: Its Vd is 94 L.

Q: What about the AUC(0-t) [3] of the same molecule?
A: The AUC(0-t) was 4020 ng·h/mL.

Q: What about the clearance [3] of the same molecule?
A: Its clearance is 767 mL/min.

Q: What about the Cmax (human, plasma, iv, 110 mg m^−2, individual patients, dose 110 mg m^−2, cycle 1inj2, read-out: Cmax) of the same molecule?
A: The Cmax was 3510 ng/mL.

Q: And the half-life [3]?
A: Its half-life is 37.2 min.

Q: And the Vd [3]?
A: The Vd was 41 L.

Q: And the AUC(0-t) [4]?
A: The AUC(0-t) was 3800 ng·h/mL.

Q: And the clearance [4]?
A: The clearance was 1400 mL/min.

Q: And the Cmax (human, plasma, iv, 110 mg m^−2, individual patients, dose 110 mg m^−2, cycle 1inj8, read-out: Cmax)?
A: Its Cmax is 3580 ng/mL.

Q: And the half-life [4]?
A: The half-life was 37.2 min.

Q: What about the Vd [4] of the same molecule?
A: The Vd was 75 L.

Q: What about the AUClast [5] of the same molecule?
A: Its AUClast is 463 ng·h/mL and 848 ng·h/mL and 1143 ng·h/mL.

Q: What about the “CL (observed)” value [5] of the same molecule?
A: The value was 181 L/h and 94 L/h and 83 L/h.

Q: What about the Cmax [5] of the same molecule?
A: Its Cmax is 2724 ng/mL and 2253 ng/mL.

Q: And the T1/2λz [5]?
A: Its T1/2λz is 30.6 min and 36.6 min.

Q: What about the “Vz (observed)” value [5] of the same molecule?
A: Its value is 72 L.

Q: What about the “CL (observed)” value [6] of the same molecule?
A: Its value is 115 L/h.

Q: And the Cmax [6]?
A: The Cmax was 1289 ng/mL.

Q: What about the T1/2λz [6] of the same molecule?
A: The T1/2λz was 25.2 min.

Q: And the AUClast [7]?
A: The AUClast was 2510 ng·h/mL.

Q: And the “CL (observed)” value [7]?
A: Its value is 74 L/h.

Q: And the Cmax [7]?
A: Its Cmax is 2968 ng/mL.

Q: And the T1/2λz [7]?
A: Its T1/2λz is 49.2 min.

Q: And the “Vz (observed)” value [7]?
A: The value was 88 L.

Q: What about the AUClast [8] of the same molecule?
A: The AUClast was 2068 ng·h/mL.

Q: What about the “CL (observed)” value [8] of the same molecule?
A: Its value is 89 L/h.

Q: What about the Cmax [8] of the same molecule?
A: Its Cmax is 2914 ng/mL.

Q: And the T1/2λz [8]?
A: The T1/2λz was 39 min.

Q: What about the “Vz (observed)” value [8] of the same molecule?
A: Its value is 84 L.

Q: What about the AUClast [9] of the same molecule?
A: The AUClast was 1151 ng·h/mL and 2094 ng·h/mL.

Q: And the “CL (observed)” value [9]?
A: The value was 133 L/h and 102 L/h.

Q: What about the Cmax [9] of the same molecule?
A: Its Cmax is 1624 ng/mL and 2057 ng/mL.

Q: What about the T1/2λz [9] of the same molecule?
A: Its T1/2λz is 42.6 min.

Q: What about the “Vz (observed)” value [9] of the same molecule?
A: The value was 45 L and 136 L and 104 L.

Q: What about the AUClast [10] of the same molecule?
A: Its AUClast is 1250 ng·h/mL.

Q: And the Cmax [10]?
A: The Cmax was 3672 ng/mL and 1354 ng/mL.

Q: What about the T1/2λz [10] of the same molecule?
A: Its T1/2λz is 36 min and 123 min.

Q: What about the “Vz (observed)” value [10] of the same molecule?
A: Its value is 52 L and 447 L.

Q: And the AUClast [11]?
A: The AUClast was 2345 ng·h/mL and 3842 ng·h/mL.

Q: What about the “CL (observed)” value [11] of the same molecule?
A: The value was 70 L/h and 83 L/h.

Q: What about the Cmax [11] of the same molecule?
A: Its Cmax is 2750 ng/mL and 3237 ng/mL.

Q: What about the T1/2λz [11] of the same molecule?
A: The T1/2λz was 41.4 min and 33 min.

Q: And the “Vz (observed)” value [11]?
A: Its value is 70 L and 66 L.

Q: What about the AUClast [12] of the same molecule?
A: The AUClast was 4946 ng·h/mL and 3471 ng·h/mL and 2021 ng·h/mL.

Q: And the “CL (observed)” value [12]?
A: Its value is 55 L/h and 92 L/h and 150 L/h.

Q: And the Cmax [12]?
A: The Cmax was 4851 ng/mL and 2869 ng/mL and 1217 ng/mL.

Q: What about the T1/2λz [12] of the same molecule?
A: The T1/2λz was 53.4 min and 42.6 min.

Q: What about the “Vz (observed)” value [12] of the same molecule?
A: Its value is 119 L and 153 L.

Q: And the AUClast [13]?
A: Its AUClast is 2349 ng·h/mL.

Q: And the “CL (observed)” value [13]?
A: The value was 62 L/h and 169 L/h.

Q: What about the Cmax [13] of the same molecule?
A: Its Cmax is 2080 ng/mL.

Q: What about the T1/2λz [13] of the same molecule?
A: The T1/2λz was 40.2 min.

Q: What about the “Vz (observed)” value [13] of the same molecule?
A: Its value is 51 L and 164 L.

Q: What about the AUClast [14] of the same molecule?
A: Its AUClast is 3389 ng·h/mL and 1928 ng·h/mL and 3683 ng·h/mL and 3397 ng·h/mL and 2621 ng·h/mL and 2870 ng·h/mL and 2465 ng·h/mL and 1267 ng·h/mL and 4094 ng·h/mL and 1578 ng·h/mL.

Q: And the Cmax [14]?
A: Its Cmax is 4159 ng/mL and 2474 ng/mL and 2961 ng/mL and 2774 ng/mL and 2894 ng/mL and 2795 ng/mL and 3202 ng/mL and 1177 ng/mL and 4508 ng/mL and 2625 ng/mL.

Q: What about the T1/2λz [14] of the same molecule?
A: Its T1/2λz is 40.8 min and 30 min and 47.4 min and 39.6 min and 81.6 min and 40.2 min and 69 min and 22.8 min and 29.4 min and 41.4 min.

Q: And the “Vz (observed)” value [14]?
A: Its value is 63 L and 70 L and 85 L and 196 L and 97 L and 119 L and 118 L and 39 L and 106 L.

Q: And the Cmax [15]?
A: Its Cmax is 3370 ng/mL and 2274 ng/mL and 2066 ng/mL and 2161 ng/mL and 493 ng/mL and 4283 ng/mL.

Q: What about the “Vz (observed)” value [15] of the same molecule?
A: Its value is 57 L and 74 L and 176 L and 488 L and 214 L and 46 L.

Reference: PMC2361651 (British Journal of Cancer, 2005)
